Assay results: US20250129092A1, “COMPOUNDS USEFUL IN MODULATION OF AHR SIGNALLING” (JAGUAHR THERAPEUTICS PTE LTD, priority 2021, published 2025)

What was measured:
AhR [1] = target: T1, AhR (Homo sapiens, UniProt P35869); experiment: AhR antagonism in human PBMCs - inhibition of IL-22 release; type: cell-based; set-up: endogenous in cells; details: human PBMCs activated with CD3/CD28 agonist mixture, 72 hrs, IL-22 ELISA; average; read-out: hPBMC Inhibition of CD3/CD28 induced IL-22 release: av. pIC50 (converted)
T1 sequence (P35869 11-848): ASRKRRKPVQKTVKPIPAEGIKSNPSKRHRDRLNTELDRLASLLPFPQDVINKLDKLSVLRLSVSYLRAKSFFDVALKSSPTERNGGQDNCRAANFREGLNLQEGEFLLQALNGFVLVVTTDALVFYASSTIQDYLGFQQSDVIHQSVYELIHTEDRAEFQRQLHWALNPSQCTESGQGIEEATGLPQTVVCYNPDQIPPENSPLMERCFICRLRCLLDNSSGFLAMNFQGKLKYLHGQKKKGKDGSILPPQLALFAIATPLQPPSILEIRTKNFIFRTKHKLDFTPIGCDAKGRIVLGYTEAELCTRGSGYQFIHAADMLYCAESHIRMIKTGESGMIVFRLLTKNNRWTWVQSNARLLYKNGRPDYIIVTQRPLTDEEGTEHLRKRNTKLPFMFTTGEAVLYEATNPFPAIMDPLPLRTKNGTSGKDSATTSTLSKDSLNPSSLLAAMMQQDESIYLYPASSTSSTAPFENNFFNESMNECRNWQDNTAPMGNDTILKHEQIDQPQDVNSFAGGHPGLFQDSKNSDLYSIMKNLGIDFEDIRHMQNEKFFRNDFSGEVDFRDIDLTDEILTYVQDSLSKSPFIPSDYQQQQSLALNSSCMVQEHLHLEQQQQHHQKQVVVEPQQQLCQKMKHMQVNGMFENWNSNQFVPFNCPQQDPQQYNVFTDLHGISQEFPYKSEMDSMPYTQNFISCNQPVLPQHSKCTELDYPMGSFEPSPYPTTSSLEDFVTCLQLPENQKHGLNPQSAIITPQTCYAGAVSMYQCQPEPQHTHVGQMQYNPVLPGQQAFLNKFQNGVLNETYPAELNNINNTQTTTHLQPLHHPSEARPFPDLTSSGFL
Source text: In Vitro Assay 3: AhR Antagonism in Human Peripheral Blood Mononuclear Cells (PBMCs)-Inhibition of Interleukin-22 (IL-22) Release.
PBMCs were isolated from human peripheral blood using Lymphoprep™ and diluted to 1×10^6 cells per ml in RPMI media containing […] foetal bovine serum, 1% penicillin-streptomycin and 1% non essential amino acids. PBMCs were subsequently activated with 1p1 per 100,000 cells of a CD3/CD28 agonist mixture (human T Cell TransAct™ (Miltenyi Biotec)) and then plated at 100,000 cells per well in a round bottom 96 well tissue culture plate. One hour after stimulation seven concentrations of each test compound or vehicle (final [DMSO] 0.2%) were added. The plates were then placed in an incubator at 37° C., ≥85% humidity, 5% […] for 72 hrs before the media was removed and stored at −20° C. until cytokine analysis. IL-22 was measured using human IL-22 DuoSet ELISA (R&D systems) according to the manufacturer's instructions.

AhR [2] = target: T1, AhR; experiment: AhR antagonism in U937 cells (Promega P450-Glo assay); type: cell-based; set-up: endogenous in cells; host or cells: U937 cells; details: CYP1A1 activity readout (Luciferin-CEE), head names VAF347, average, read-out: U937 Antagonist pIC50-VAF347: av. pIC50 (converted)
Description: In Vitro Assay 1: AhR Antagonism in U937 Cells (Promega P450-Glo™ Assay)
AhR antagonism was assessed in LJ937 cells (myeloid lineage cell line derived from a human histiocytic lymphoma). Ligand binds the AhR in the cytoplasm, and the AhR-ligand complex translocates to the nucleus and forms a heterodimer with AhR nuclear translocator (Arnt). This complex binds the xenobiotic response element (XRE) in the 5′ upstream region of the CYP1A1 promoter, enhancing CYP1A1 expression. CYP1A1 activity is subsequently determined by assessing the conversion of Luciferin-CEE to luciferin, which in turn reacts with luciferase to produce light. The amount of light produced is directly proportional to cytochrome P450 activity. U937 cells in Ultraculture serum free media (Lonza) were plated at 100,000 cells per well in a round bottom 96 well tissue culture plate. […] The plates were then placed in an incubator at 37° C., ≥85% humidity, 5% CO2 for 24 hrs. After aspiration of the supernatant the CYP1A1 substrate Luciferin-CEE ([Final] 83 μM) was added and incubated for 3 hrs before the reaction was stopped by adding luciferin detection reagent and luminescence was read after 20 minutes.

Row | IC50 (AhR [1]) [nM] | IC50 (AhR [2]) [nM] | Compound
1 | 2.14 | 4.9 | O=c1[nH]cccc1-c1nc(NCCc2c[nH]c3ccccc23)c2c(n1)N[C@H](CO)CO2 [Example 27, (R)-3-(4-((2-(1H-indol-3-yl)ethyl)amino)-7-(hydroxymethyl)-7,8-dihydro-6H-pyrimido[5,4-b][1,4]oxazin-2-yl)pyridin-2 (1H)-one]
2 | 3.24 | 3.8 | COC[C@@H]1COc2c(NCCc3c[nH]c4ccccc34)nc(-c3cnc(C)s3)nc2N1 [Example 59, (7R)—N-[2-(1H-indol-3-yl)ethyl]-7-(methoxymethyl)-2-(2-methylthiazol-5-yl)-7,8-dihydro-6H-pyrimido[5,4-b][1,4]oxazin-4-amine]
3 | 759 | 81.3 | COC[C@@H]1COc2c(nc(-c3cnc(C)s3)nc2N[C@@H]2CCc3[nH]c4ccccc4c3C2)N1 [Example 53, (7R)-7-(methoxymethyl)-2-(2-methylthiazol-5-yl)-N-[(3R)-2,3,4,9-tetrahydro-1H-carbazol-3-yl]-7,8-dihydro-6H-pyrimido[5,4-b][1,4]oxazin-4-amine]
4 | 56.2 | 25.1 | Fc1ccc(-c2nc3c(c(NCCc4c[nH]c5ccccc45)n2)OCCN3)cc1 [Example 2, 2-(4-fluorophenyl)-N-[2-(1H-indol-3-yl)ethyl]-7,8-dihydro-6H-pyrimido[5,4-b][1,4]oxazin-4-amine]
5 | 6.92 | 3.39 | COC[C@@H]1COc2c(NCCc3c[nH]c4ccccc34)nc(-c3cc(F)cc(F)c3)nc2N1 [Example 49, (7R)-2-(3,5-difluorophenyl)-N-[2-(1H-indol-3-yl)ethyl]-7-(methoxymethyl)-7,8-dihydro-6H-pyrimido[5,4-b][1,4]oxazin-4-amine]
6 | 0.724 | 4.79 | COC[C@@H]1COc2c(NCCc3c[nH]c4ccccc34)nc(-c3ccc[nH]c3=O)nc2N1 [Example 26, (R)-3-(4-((2-(1H-indol-3-yl)ethyl)amino)-7-(methoxymethyl)-7,8-dihydro-6H-pyrimido[5,4-b][1,4]oxazin-2-yl)pyridin-2(1H)-one]
7 | 18.6 | 12 | COC[C@@H]1COc2c(NCCc3c[nH]c4ccccc34)nc(-c3ccc(F)cc3)nc2N1 [Example 56, (7R)-2-(4-fluorophenyl)-N-[2-(1H-indol-3-yl)ethyl]-7-(methoxymethyl)-7,8-dihydro-6H-pyrimido[5,4-b][1,4]oxazin-4-amine]
8 | < 1.55 | 10.2 | CN1CCOc2c(NCCc3c[nH]c4ccccc34)nc(-c3ccc[nH]c3=O)nc21 [Example 44, 3-(4-((2-(1H-indol-3-yl)ethyl)amino)-8-methyl-7,8-dihydro-6H-pyrimido[5,4-b][1,4]oxazin-2-yl)pyridin-2 (1H)-one]
9 | 158 | 93.3 | O=c1[nH]cccc1-c1nc2c(c(N[C@@H]3CCc4[nH]c5ccccc5c4C3)n1)OCCN2 [Example 63, 3-[4-[[(3R)-2,3,4,9-tetrahydro-1H-carbazol-3-yl]amino]-7,8-dihydro-6H-pyrimido[5,4-b][1,4]oxazin-2-yl]-1H-pyridin-2-one]
10 | 2.88 | 2.63 | Cc1ncc(-c2nc3c(c(OCCc4c[nH]c5cc(F)ccc45)n2)OCCN3)s1 [Example 24, 4-[2-(6-fluoro-1H-indol-3-yl)ethoxy]-2-(2-methylthiazol-5-yl)-7,8-dihydro-6H-pyrimido[5,4-b][1,4]oxazine]
11 | > 2000 | 123 | FC(F)Oc1ncccc1-c1nc2c(c(NCCc3c[nH]c4ccccc34)n1)OCCN2 [Example 22, 2-[2-(difluoromethoxy)-3-pyridyl]-N-[2-(1H-indol-3-yl)ethyl]-7,8-dihydro-6H-pyrimido[5,4-b][1,4]oxazin-4-amine]
12 | 1.62 | 4.37 | COC[C@@H]1COc2c(nc(-c3ccc[nH]c3=O)nc2OCCc2c[nH]c3ccccc23)N1 [Example 48, 3-[(7R)-4-[2-(1H-indol-3-yl)ethoxy]-7-(methoxymethyl)-7,8-dihydro-6H-pyrimido[5,4-b][1,4]oxazin-2-yl]-1H-pyridin-2-one]

Continued, compound first:

Row | Compound | IC50 (AhR [1]) [nM] | IC50 (AhR [2]) [nM]
13 | Cc1ncc(-c2nc3c(c(NC4CCc5[nH]c6cccnc6c5C4)n2)OCCN3)s1 (centres unmarked) [Example 34, 2-(2-methylthiazol-5-yl)-N-(6,7,8,9-tetrahydro-5H-pyrido[3,2-b]indol-8-yl)-7,8-dihydro-6H-pyrimido[5,4-b][1,4]oxazin-4-amine] | > 2000 | > 759
14 | Cc1ccc(-c2nc3c(c(NCCc4c[nH]c5cc(F)ccc45)n2)OCCN3)cn1 [Example 20, N-[2-(6-fluoro-1H-indol-3-yl)ethyl]-2-(6-methyl-3-pyridyl)-7,8-dihydro-6H-pyrimido[5,4-b][1,4]oxazin-4-amine] | 43.7 | 91.2
15 | c1ccc2c3c([nH]c2c1)CC[C@@H](Nc1nc(-c2nccs2)nc2c1OCCN2)C3 [Example 13, N-[(3R)-2,3,4,9-tetrahydro-1H-carbazol-3-yl]-2-thiazol-2-yl-7,8-dihydro-6H-pyrimido[5,4-b][1,4]oxazin-4-amine] | > 1780 | 229
16 | CCc1nc(C)c(-c2nc3c(c(NCCc4c[nH]c5ccccc45)n2)OCCN3)s1 [Example 12, 2-(2-ethyl-4-methyl-thiazol-5-yl)-N-[2-(1H-indol-3-yl)ethyl]-7,8-dihydro-6H-pyrimido[5,4-b][1,4]oxazin-4-amine] | 141 | 89.1
17 | Cc1ncc(-c2nc3c(c(N(CCO)CCc4c[nH]c5ccccc45)n2)OCCN3)s1 [Example 11, 2-[2-(1H-indol-3-yl)ethyl-[2-(2-methylthiazol-5-yl)-7,8-dihydro-6H-pyrimido[5,4-b][1,4]oxazin-4-yl]amino]ethanol] | 525 | 91.2
18 | Cc1ncc(-c2nc3c(c(N[C@H]4Cc5cccc6[nH]cc(c56)C4)n2)OCCN3)s1 (single isomer, unassigned) [Example 62] | 132 | 50.1
19 | Cc1ncc(-c2nc3c(c(N[C@@H]4Cc5cccc6[nH]cc(c56)C4)n2)OCCN3)s1 (single isomer, unassigned) [Example 61] | 1260 | 339
20 | Cc1ncc(-c2nc3c(c(N[C@@H]4CCc5[nH]c6ccccc6c5C4)n2)OC[C@@H](CO)N3)s1 [Example 54, [(7R)-2-(2-methylthiazol-5-yl)-4-[[(3R)-2,3,4,9-tetrahydro-1H-carbazol-3-yl]amino]-7,8-dihydro-6H-pyrimido[5,4-b][1,4]oxazin-7-yl]methanol] | 501 | 229
21 | CC(C)N1CCOc2c(NCCc3c[nH]c4ccccc34)nc(-c3cncc(F)c3)nc21 [Example 6, 2-(5-fluoro-3-pyridyl)-N-[2-(1H-indol-3-yl)ethyl]-8-isopropyl-6,7-dihydropyrimido[5,4-b][1,4]oxazin-4-amine] | 1.35 | 7.76
22 | COC[C@@H]1COc2c(N[C@@H]3CCc4[nH]c5ccccc5c4C3)nc(-c3cnc(C)s3)nc2N1CCN(C)C [Example 35, (7R)-8-[2-(dimethylamino)ethyl]-7-(methoxymethyl)-2-(2-methylthiazol-5-yl)-N-[(3R)-2,3,4,9-tetrahydro-1H-carbazol-3-yl]-6,7-dihydropyrimido[5,4-b][1,4]oxazin-4-amine] | 977 | > 1000
